# According to US9585879B2, “Heterocyclic GSK-3 allosteric modulators” (Consejo Superior de Investigaciones Cientificas (CSIC), priority 2011, dated 2017):
# Like-named read-outs stand apart in the source and are kept apart here.
# Columns and labels:
# [1] = biological target: recombinant human GSK3 enzyme (GSK-3β); assay type: biochemical; conditions: Kinase-Glo, 1 μM ATP, 25 μM substrate, 30 min at 30 °C
# Procedure: Measurement of the Inhibition of GSK-3β
# The enzyme inhibition assays were performed using the luminometric methodology of kinase-Glo®. The recombinant human GSK3 enzyme (catalogue no. 14-306) was acquired from Upstate (Dundee, UK). The prephosphorylated polypeptide was synthesised by American Peptide Inc. (Sunnyvale, Calif.). The luminescent kinase kit (catalogue no. V6711) was obtained from Promega. The ATP and the other reagents were purchased from Sigma-Aldrich (St. Louis, Mo.).
# The assays were performed in buffer using 96-well plates. 10µl of the compound to be assayed (dissolved in DMSO at a concentration of 1 mM, and, in turn, dissolved in buffer to the concentration necessary for the experiment) and 10µl (20 ng) of the enzyme are added to each well, followed by 20µl of buffer containing 25µM of the substrate and 1µM of ATP. […] Following a half-hour incubation at 30° C., the enzymatic reaction is stopped with 40µl of the kinase-Glo® reagent. The luminescence is measured after ten minutes, using a POLARstar Optima multimode reader. The activity is proportional to the difference between the total ATP and the ATP consumed. The inhibitory activities were calculated as a function of the maximum activity, measured in the absence of inhibitor.
# GSK-3β [2] = assay: Study of the inhibition of GSK-3β as a function of enzyme-inhibitor pre-incubation time; assay type: biochemical, human
# Procedure: In order to determine the binding mode of these compounds, different kinetic studies were performed, varying the reaction times and the ATP concentration and the substrate concentration.
# GSK-3β [3] = assay type: biochemical, human
# Procedure: The ATP concentrations were varied from 1 to 50 µM, whereas the concentration of the GS-2 peptide was kept constant at 12.5 µM. The concentrations of inhibitor (compound 6) used are shown in the plot.
# The kinetic studies conducted by varying the ATP concentration from 1 to 50µM, and the concentration of inhibitor 6 from 5 to 10µM, were performed using the ADP-Glo™ Kinase Assay.
# GSK-3β [4] = assay type: biochemical, human; remark: listed apart in the source
# Procedure: The GS-2 concentrations were varied from 15.5 to 100 µM, whereas the ATP concentration was kept constant at 1 µM. The concentrations of inhibitor (compound 6) used are shown in the plot.
# On the other hand, we also studied the dependence of GSK-3β activity in the presence of these inhibitors as a function of the concentration of the substrate, the GS-2 peptide, used in the assays.
# [5] = GS-2 15.5 to 100 μM, ATP 1 μM, inhibitor 5 to 10 μM
SMILES,IC50 [1],"% inhibition of GSK-3β (GSK-3β [2]; [Comp. 6] 5 μM, pre-incubation time E + I 0 min)","% inhibition of GSK-3β (GSK-3β [2]; [Comp. 6] 5 μM, pre-incubation time E + I 5 min)","% inhibition of GSK-3β (GSK-3β [2]; [Comp. 6] 5 μM, pre-incubation time E + I 10 min)","% inhibition of GSK-3β (GSK-3β [2]; [Comp. 6] 10 μM, pre-incubation time E + I 0 min)","% inhibition of GSK-3β (GSK-3β [2]; [Comp. 6] 10 μM, pre-incubation time E + I 5 min)","% inhibition of GSK-3β (GSK-3β [2]; [Comp. 6] 10 μM, pre-incubation time E + I 10 min)","reversibility of GSK-3β inhibition (GSK-3β [2]; different enzyme incubation times, two inhibitor concentrations)",Michaelis-Menten constant (Km) in the presence of the inhibitor (GSK-3β [3]),"mode of inhibition with respect to ATP (GSK-3β [3]; ATP 1 to 50 μM, GS-2 12.5 μM, inhibitor 5 to 10 μM)","maximum enzyme activity (Vmax) in the presence of the inhibitor (GSK-3β [3]; ATP 1 to 50 μM, inhibitor 5 to 10 μM)",Michaelis-Menten constant (Km) in the presence of the inhibitor (GSK-3β [4]),maximum enzyme activity (Vmax) in the presence of the inhibitor (GSK-3β [4]; [5]),mode of inhibition with respect to substrate GS-2 (GSK-3β [4]; [5])
"CCCCCCCCCCCC(=O)NNC(=O)c1c(O)c2ccccc2n(C)c1=O [Compound 4, N′-Dodecanoyl-4-hydroxy-1-methyl-2-oxo-1,2-dihydroquinoline-3-carbohydrazide]",7.35 ± 0.23 µM,,,,,,,,,,,,,
"CCCCCCCCCCCC(=O)NNC(=O)c1c(O)c2ccccc2n(CC)c1=O [Compound 6, N′-Dodecanoyl-1-ethyl-4-hydroxy-2-oxo-1,2-dihydroquinoline-3-carbohydrazide]",,27.42%,30.31%,30.18%,61.4%,63.04%,62.26%,reversible inhibitor,remains invariable,non-ATP-competitive inhibitor,decreases,remains invariable,decreases,substrate-non-competitive inhibitor
"CCCCCCCCCCCC(=O)N(Cc1ccccc1)NC(=O)c1c(O)c2ccccc2n(Cc2ccccc2)c1=O [Compound 63, N′,1-Dibenzyl-N′-dodecanoyl-4-hydroxy-2-oxo-1,2-dihydroquinoline-3-carbohydrazide]",6.84 ± 0.51 µM,,,,,,,,,,,,,
